Data on one compound can be found in patent US20250082646A1, “OVARIAN ANTI-AGING PHARMACEUTICAL COMPOSITION AND USE THEREOF” (priority 2022, published 2025).

Test [1] concerns mouse ovaries stimulated with PMSG. The experiment in a line: Histology (hematoxylin and eosin) of ovaries after PMSG stimulation in vivo: number of ovarian follicles. As to conditions: treated ovaries compared to the ovaries of the control; after hormonal stimulation; FIG. 1A. Here is the method: In this experiment, as a control, young mice (7 to 9 weeks old, n=15), and as an experimental group, old mice (55 to 60 weeks old, n=30) were prepared. In the drawing, the experimental results of the young mice are indicated as ‘Young,’ and the experimental results of the old mice are indicated as ‘Old.’
(§1) For in vivo hormone stimulation, the old mice were treated with the Example compound, and 12 hours later, 75 IU pregnant mare serum gonadotropin (PMSG: RP1782725000; BioVendor, Czech Republic) was injected into the mice. A control is a group administered only 751U PMSG. Female mice were superovulated by injecting hormones intraperitoneally at intervals of 48 hours. The administered hormones were PMSG (7.5 IU) and human chorionic gonadotropin (hCG: 668900221; LG Chem. Seoul, Korea: 7.5 IU). After secondary hormone treatment, female mice were mated with male mice (2:1 or 1:1). Modified pronuclear cells (2PNs) were obtained 24 hours after hCG injection.
In Experimental Example 1, the effect of treatment with Example Compound on mouse ovaries stimulated with PMSG in vivo was evaluated. Light microscopy imaging was performed on the ovaries of young mice, and old mice treated and not treated with Example Compound.
Each sample was fixed with 4% paraformaldehyde at room temperature for 30 minutes, and the fixed tissue was washed with PBS and embedded in paraffin with a thickness of 5 μm. […]

The test system of test [2] is old ovaries (GV oocytes). The test can be described thus: Number of GV oocytes collected from ovaries after superovulation. As to conditions: old ovaries treated vs old ovaries not treated; FIGS. 1B and 1C. It counts as in vivo, mouse. Here is the method:
Female mice (young mice: 7-8 weeks old; old mice: 40 weeks or older) were superovulated by intraperitoneally injecting pregnant mare serum gonadotropin (PMSG: G4527, Sigma Aldrich: 7.5 IU). Germinal vesicle (GV) oocytes were collected from the ovaries 48 hours after PMSG injection. For zygotes, female mice were injected with PMSG, and 48 hours later, injected with hCG, and then placed overnight with BDF1 stud male mice, which were approximately 10 to 12 weeks old. The next day, plugs of the female mice were examined, and zygotes and two-cell embryos were collected from the oviducts 18 to 20 hours and 36 hours after hCG injection, respectively.
After inducing superovulation, the numbers of GV oocytes in the ovaries of the old mice and young mice treated with Example Compound were evaluated.
The measurement of the number of GV oocytes was performed by collecting mouse eggs from each group (the number of eggs of young mice: 15: the number of eggs of old mice: 30; and the number of eggs of old mice treated with Example Compound: 30), physically chopping the eggs to collect ovarian follicles, and isolating GV oocytes in the ovarian follicles to count the number of cells.

For test [3], the system named is fertilized 2PN embryos of old mice. The experiment in a line: Pre-implantation development of fertilized 2PN embryos from treated old mice. It counts as in vivo, mouse. The method, then: as §1
In Experimental Example 2, the effect of fertilized 2PN embryo development on the ovaries of the old mice treated with Example Compound was evaluated.
27 pronuclear cells of the old mice (n=15) treated with Example Compound and 62 pronuclear cells of the old mice (n=15) not treated with Example Compound as a control were cultured. Afterward, the number of cells at each of 2-cell, 4-cell, 8-cell, morula, early blastocyst, and late blastocyst stages was measured using a microscope, and expressed as a percentage.

The subject of test [4] is ovaries of old mice. The experiment in a line: Ovarian gene expression pattern by next generation sequencing (mRNA sequencing). It counts as in vivo, mouse. As to conditions: NGS; genes increased in the old group. Here is the method: A major change in gene expression caused by treatment with Example Compound was confirmed through next generation sequencing (NGS).
mRNA sequencing was performed according to References. RNA was extracted using a TRIzol (15596026. Thermo Fisher) solution. Sequencing libraries were prepared according to the manufacturer's instructions using the TruSeq Stranded mRNA LT Sample Prep Kit (Illumina). Paired end 101 bp sequencing was performed using the Illumina platform (NovaSeq 6000, Illumina). The results of two experiments were obtained for each group.
According to the criteria (1st trimming, base quality<3, window size=4, mean quality=15; 2nd trimming: min length=36 bp), paired end read data was trimmed using Trimmomatic (Bolger et al., 2014). Using the HISAT2 program (Kim et al., 2019; Nat Biotechnol 37, 907-915, 2019), trimmed reads were mapped to the UCSC genome database. Also, the mapping results were quantified using StringTie (Pertea et al., 2015; Nat Biotechnol. 2015 March; 33(3): 290-295) and gene/transcript-based annotations (NCBI Annotation Release 108).
Differential expression gene analysis was performed using DESeq2 according to the criteria (baseMean counts>14, false discover rate (FDR)<0.1, and log 2FoldChange>1). […]

The subject of test [5] is Ptpn6, Fcer1g, Tyrobp, Slamf9, Clec4a3 mRNA. The test can be described thus: RT-qPCR of immune system regulatory genes (tumor necrosis factor superfamily cytokine production) in ovaries. As to conditions: old experimental group treated, FIG. 3B. It counts as in vivo, mouse. Here is the method:
In this experiment, a change in the expression of immune system regulatory genes (genes involved with tumor necrosis factor superfamily cytokine production) was quantitatively evaluated using real-time quantitative PCR (RT-qPCR) according to the treatment of aged models with Example Compound.
RT-qPCR was performed on each ovary using the TRIzol protocol, total RNA was extracted from a lysate using the RNeasy mini kit (Qiagen Ltd.), and the extracted total RNA was reverse-transcribed using a Superscript kit (Invitrogen) containing a random hexamer to synthesize cDNA.
Gene expression levels were confirmed using primers and the SsoAdvanced Universal SYBR Green Supermix (Bio-Rad. US) in the CFX96 Touch Real-Time PCR detection system (Bio Rad, US).
For each gene tested, a comparative threshold cycle (CT) method that normalizes the accumulated PCR product to the reference gene beta-actin was used, and repeated three times.
The PCR product was loaded on a 2% agarose gel and stained with Safeview™ (Applied Biological Materials. Richmond, Canada), and the gel was visualized under UV light using a gel documentation system (WSE-6100 LuminoGraph; ATTO, Tokyo, Japan), and the product bands were analyzed by the analysis of intensity ratios using ImageJ software.

Test [6] has as its system longevity-related genes, steroidogenesis-related genes, primordial follicle factors, ovarian function factors. The experiment in a line: RT-PCR of ovarian function-related genes in ovaries of old mice. It counts as in vivo, mouse. From the text: The expression of ovarian function-related genes in the ovaries of old mice treated with Example Compound was confirmed by reverse transcription-polymerase chain reaction (RT-PCR).
mRNA was extracted from oocytes using a TRIzol (TRIzol RNA, 15596026, Thermo Fisher) solution and subjected to RT-PCR. The PCR product was stained with SafeView™ (Applied Biological Materials, Richmond, Canada) and loaded on a 2% agarose gel. Additionally, the gel was visualized under UV light using a gel documentation system (WSE-6100 LuminoGraph; ATTO, Tokyo, Japan). The intensity ratios of the product bands were analyzed using the ImageJ software program.
The expression of primordial follicle factors, such as Nanog, Oct3/4, and p63, and ovarian function factors, such as AMH and BMP15, in the ovaries of the mice treated with Example Compound were analyzed by RT-PCR.
In FIGS. 4A and 4B, “Young” indicates a young mouse, “Old” indicates an old mouse, and “Old+Compound 1” indicates an old mouse treated with Example Compound.
In FIG. 4A, the upper left box indicates longevity-related genes, the lower left box indicates steroidogenesis-related genes, the upper right box indicates primordial follicle factors, and the lower right box indicates ovarian function factors.

[7] abbreviates: old mice treated, 27 pronuclear cells cultured.
[8] abbreviates: old mice treated vs old mice not treated.

`O=S1(=O)CCN(Cc2cc(NC3CCOCC3)c3[nH]c(-c4ccccc4)cc3c2)CC1` [Example Compound, 5-[(1,1-dioxido-4-thiomorpholinyl)methyl]-2-phenyl-N-(tetrahydro-2H-pyran-4-yl)-1H-indol-7-amine]: the “total number of ovarian follicles, including preantral follicles and antral follicles” value in test [1] was “significantly higher”. Besides, the “total number of oocytes collected at the GV stage” value in test [2] is recorded as “significantly higher”. Also, the “embryo development rate higher than that of the control embryo” value in test [3] (at the morula, early blastocyst, and late blastocyst stages, old mice, FIG. 2) stood at 20%. For the same compound, in test [3] (setting [7]), the early blastocyst rate was found to be 51.85%, the “embryo development rate at the morula stage” value was 55.56% and the late blastocyst rate is listed as 51.85%. Moreover, the “expression of Fcerlg, Slamf9, Clec4a3, Ptpn6, Tyrobp, Adipoq, Bcl3, Trem2, and Sash3 (TNF superfamily cytokine production DEGs)” value in test [4] was “down-regulated”. For the same compound, the “mRNA expression levels of Ptpn6, Fcerlg, Tyrobp, Slamf9, and Clec4a3” value in test [5] is “lowered to levels similar to those of the young control”. Moreover, in test [6] (setting [8]), the “expression levels of SOD2 and SIRT1 (longevity-related genes)” value is “higher”; the “expression levels of steroid production-related genes Edn2, Tbxa2r, Oxtr, and Adra1d” value was “significantly increased”. The “mRNA expression of Oct3/4, Nanog, p63, Lhcgr, AMH, GDF9, BMP15, and Kid” value in test [6] (treated vs control not treated, FIGS. 4A and 4B) is on record as “significantly higher”.
